Laboratory results taken from EP3959200B1, “NEW TRIAZOLE AND TRIAZOLOTHIADIAZINE DERIVATIVES EXERTING CYTOTOXIC AND APOPTOTIC EFFECTS ON A549 CELLS THROUGH AKT INHIBITION” (Anadolu Universitesi, priority 2020, dated 2022).
In brackets after ≈: the same amount, converted by molar mass.

Legend:
[1] = tested on: kidney cancer (OU-31) cell line; parameters: concentration or dose not given beside the values; conditions: cited from earlier work
K562 cell line = conditions: cited from earlier work
A549 cells = test: FITC Annexin V/PI apoptosis detection by flow cytometry; type: cell-based, human; conditions: for Early apoptotic cells % / Late apoptotic cells % / Necrosis % / Viable cells% / apoptotic activity: at IC50 concentrations; for apoptotic activity: early plus late apoptotic cells; for apoptosis induction: flow cytometry, result in words
Procedure: The cells incubated with the compounds were centrifuged at 400 × g for 5 minutes in labeled tubes and washed twice with 1xPBS. Then, the cells were suspended in 1×Annexin-V binding solution at 1×10^6 cells/mL and 100 µL of this cell solution was taken and transferred to tubes. The cells were treated with 5 µL Annexin V FITC and 5 µL of propidium iodide (PI) dyes. Then, the cells were kept at room temperature in the dark for 15 minutes to allow the dye to bind. 400 µL of 1×Annexin-V binding cell solution was transferred to flow cytometry tubes and the amount of early and late apoptotic cells was determined relative to the positive control using the BD FACSAria flow cytometer FACSDiva version 6.1.1 software.

Akt = Akt activity assay (Akt colorimetric in cell ELISA); type: cell-based, human; conditions: for Inhibition % / IC50 value (Akt inhibitory effects): 24 hours; for Akt inhibitory effects: result in words
Procedure: Briefly, the media was removed from the wells and 100 µL of 4% formaldehyde was added. The plate was incubated for 15 minutes in a fume hood. Formaldehyde was removed and the plate was washed twice with 1X […] solution (TBS) to 100 µL/well. 1X TBS was removed and 100 µL of 1X permeabilization buffer was added to each well and left at room temperature for 15 minutes. After removing the 1X permeabilization buffer, the wells were washed once with 100 µL of 1X TBS. 1X TBS was removed and 100 µL of the quenching solution was added to the wells and left at room temperature for 20 minutes. Then, this solution was removed. The plate was washed once with 1X TBS, 100 µL of blocking buffer was added to the wells and left at room temperature for 30 minutes. At the end of this period, the blocking buffer was removed and 50 µL of primary antibody was added to the wells. The plate was closed with a sealer and incubated overnight at 4°C. The primary antibody was removed and plate wells were washed three times with 100 µL of wash buffer. After removing the wash buffer, 100 µL of diluted horseradish peroxidase (HRP) conjugate was added to the wells. It was incubated for 30 minutes at room temperature. After removing this conjugate, 100 µL of 3,3',5,5'-tetramethylbenzidine (TMB) stop solution was added and absorbance was measured at 450 nm for 30 minutes. The experiment was carried out in triplicate. The values of the blank wells were subtracted from the values of the untreated control and treated cells. The Akt activity% was determined as the relative absorbance of treated versus untreated control cells.

[2] = tested on: NIH/3T3 mouse embryonic fibroblast cells; test: MTT cytotoxicity assay; type: cell-based; conditions: Mus musculus, NIH3T3, 24 hours, read-out: IC50 values NIH/3T3 cell line
Procedure: (§1) In order to be used from this stock, the concentrations ranging from 0.12 to 500 µg/mL (with the highest DMSO ratio of 0.1%) were prepared.
NIH/3T3 mouse embryonic fibroblast cells (ATCC® CRL-1658™) were grown in DMEM medium supplemented with 10% fetal bovine serum, 1% penicillin/streptomycin, in an incubator with carbon dioxide, in a culture medium at 37°C at 95% relative humidity.
(§2) MTT protocol was applied to determine cell viability. […] At the end of the incubation period, 20 µL of MTT dye (5 mg/mL) was added into each well, and the cells were incubated for an additional 4 hours at 37°C. After this process, MTT dye was removed from the cells, 200 µL of DMSO was added to each well and left to incubate for 10 minutes. Color change was detected at 540 nm in the ELx808-IU Bio-Tek plate reader. Inhibition% values were determined for each concentration of compounds. Inhibitory concentration 50 (IC50) values of the compounds were calculated by drawing a dose-response curve with their concentrations against these values. All experiments were carried out in triplicate. The results were given as mean±standard deviation. Inhibition% = 100−[(ODtest compound−ODblank/ODsolvent control−ODblank)×100] [formula]

[3] = tested on: A549 human lung adenocarcinoma cells; test: MTT cytotoxicity assay; type: cell-based; conditions: for IC50: Homo sapiens, A549, MTT, 24 hours, read-out: IC50 values A549 cell line; for SI values: SI= IC50 for NIH/3T3 cell line / IC50 for A549 cell line
Procedure: as §1
A549 human lung adenocarcinoma cells (ATCC® CCL-185™) were grown in RPMI 1640 medium supplemented with 10% fetal bovine serum, 1% penicillin/streptomycin, in an incubator with carbon dioxide, in a culture medium at 37°C at 95% relative humidity.
as §2
Selective index (SI) values were determined using the following formula. SI […] IC50 for NIH/3T3 cell line/IC50 for A549 cell line [formula]

| SMILES | IC50 (K562 cell line) | Early apoptotic cells % (A549 cells) | Late apoptotic cells % (A549 cells) | Necrosis % (A549 cells) | Viable cells% (A549 cells) | IC50 [2] | IC50 [3] | SI values [3] | apoptosis induction (A549 cells) | other results |
| --- | --- | --- | --- | --- | --- | --- | --- | --- | --- | --- |
| O=C(CSc1nnc2n1N=C(c1ccc(Br)cc1)CS2)c1ccc(Br)cc1 [1-(4-bromophenyl)-2-((6-(4-bromophenyl)-7H-[1,2,4]triazolo[3,4-b][1,3,4]thiadiazine-3-yl)thio)ethanone] |  |  |  |  |  |  |  |  |  | growth [1]: 46.76%; inhibition [1]: 53.24% |
| O=C(CSc1nnc2n1N=C(c1ccc(F)cc1)CS2)c1ccc(F)cc1 [1-(4-fluorophenyl)-2-((6-(4-fluorophenyl)-7H-[1,2,4]triazolo[3,4-b][1,3,4]thiadiazine-3-yl)thio)ethanone] |  |  |  |  |  |  |  |  |  | growth [1]: 47.42%; inhibition [1]: 52.58% |
| S=c1[nH]c(C23CC4CC(CC(C4)C2)C3)nn1CNc1ccccc1Cl [5-(adamantan-1-yl)-2-[((2-chlorophenyl)amino)methyl]-2,4-dihydro-3H-1,2,4-triazole-3-thione] | 27.1 ± 5.35 µM |  |  |  |  |  |  |  |  |  |
| Fc1ccccc1NCn1nc(C23CC4CC(CC(C4)C2)C3)[nH]c1=S [5-(adamantan-1-yl)-2-[((2-fluorophenyl)amino)methyl]-2,4-dihydro-3H-1,2,4-triazole-3-thione] | 27.7 ± 2.46 µM |  |  |  |  |  |  |  |  |  |
| Cc1ccccc1NCn1nc(C23CC4CC(CC(C4)C2)C3)[nH]c1=S [5-(adamantan-1-yl)-2-[(o-tolylamino)methyl]-2,4-dihydro-3H-1,2,4-triazole-3-thione] | 25.4 ± 0.89 µM |  |  |  |  |  |  |  |  |  |
| Nn1c(CCc2cccnc2)nnc1SCC(=O)Nc1nc2ccc(F)cc2s1 [Compound 3c, 2-((4-Amino-5-(2-(pyridine-3-yl)ethyl)-4H-1,2,4-triazole-3-yl)thio)-N-(6-fluorobenzothiazole-2-yl)acetamide] |  | 0.5% | 3.7% | 4.0% | 91.8% | 170 ± 17.3 µg/mL (≈ 396 µM) | 0.27 ± 0.02 µg/mL (≈ 0.629 µM) | 629.63 |  | Inhibition % (Akt; 0.07 µg/mL): 15.28±5.56%; Inhibition % (Akt; 0.14 µg/mL): 36.64±13.39%; Inhibition % (Akt; 0.27 µg/mL): 39.84±6.49%; Akt inhibitory effects (Akt): did not show significant Akt inhibitory effects |
| Nn1c(CCc2cccnc2)nnc1SCC(=O)Nc1nc2ccc(Cl)cc2s1 [Compound 3d, 2-((4-Amino-5-(2-(pyridine-3-yl)ethyl)-4H-1,2,4-triazole-3-yl)thio)-N-(6-chlorobenzothiazole-2-yl)acetamide] |  | 1.8% | 6.3% | 4.8% | 87.2% | 4.9 ± 0.36 µg/mL (≈ 11 µM) | 0.34 ± 0.02 µg/mL (≈ 0.762 µM) | 14.41 | induce apoptosis | apoptotic activity (A549 cells): 8.1%; Inhibition % (Akt; 0.98 µg/mL): 80.23±7.70%; Inhibition % (Akt; 1.95 µg/mL): 76.94±10.75%; Inhibition % (Akt; 3.90 µg/mL): 100.00%; IC50 value (Akt inhibitory effects) (Akt): 0.19 ± 0.05 µg/mL (≈ 0.426 µM) |
| Cc1ccc2nc(NC(=O)CSc3nnc(CCc4cccnc4)n3N)sc2c1 [Compound 3f, 2-((4-Amino-5-(2-(pyridine-3-yl)ethyl)-4H-1,2,4-triazole-3-yl)thio)-N-(6-methylbenzothiazole-2-yl)acetamide] |  | 1.9% | 7.7% | 5.8% | 84.6% | > 500 µg/mL | 6.5 ± 0.5 µg/mL (≈ 15.3 µM) | >76.92 | induce apoptosis | apoptotic activity (A549 cells): 9.6%; Inhibition % (Akt; 3.25 µg/mL): 37.59±9.46%; Inhibition % (Akt; 6.50 µg/mL): 40.29±11.27%; Akt inhibitory effects (Akt): did not show significant Akt inhibitory effects |
| COc1ccc2nc(NC(=O)CSc3nnc(CCc4cccnc4)n3N)sc2c1 [Compound 3g, 2-((4-Amino-5-(2-(pyridine-3-yl)ethyl)-4H-1,2,4-triazole-3-yl)thio)-N-(6-methoxybenzothiazole-2-yl)acetamide] |  | 0.9% | 5.5% | 9.1% | 84.5% | > 500 µg/mL | 0.48 ± 0.03 µg/mL (≈ 1.09 µM) |  | induce apoptosis | Inhibition % (Akt; 1.95 µg/mL): 26.42±4.59%; Inhibition % (Akt; 3.90 µg/mL): 88.87±5.31%; IC50 value (Akt inhibitory effects) (Akt): 2.60 ± 0.10 µg/mL (≈ 5.89 µM) |
